Compound | melting point [°C]
CC(C)[C@H](NC(=O)[C@H](CC(=O)OC(C)(C)C)NC(=O)CCCN)C(=O)OC(C)(C)C | 99 to 100
COc1ccccc1CNC1CCN(C2CCN(C(=O)c3cc(C)cc(C)c3)C(Cc3ccccc3)C2)CC1 (stereo unspecified) | 71.2
N#CCNC(=O)Cc1ccccc1 | 87 to 91
NC(CF)(Cc1ccc(O)c(O)c1)C(=O)O (stereo unspecified) | 230
O=C(C=Cc1ccc(F)cc1)c1cccs1 | 117 to 120
Cc1cc(NC(N)=O)cc(C)c1NC(=O)CN1CCN(CCCC(c2ccc(F)cc2)c2ccc(F)cc2)C(C(N)=O)C1 (stereo unspecified) | 142
CN(C)c1nsc2nc3ccccc3n12 | 102 to 104
COc1ccc(C(=O)Nc2c(C)c(C)c3c(c2C)C(c2ccc(C(C)C)cc2)C2(CCN(C)CC2)O3)cc1 (stereo unspecified) | 277 to 278
C[C@](O)(COc1ccc(Cl)c(F)c1)C(=O)Nc1ccc(C#N)c(C(F)(F)F)c1 | 132 to 134
C#CCOCCCCCCCCCC(=O)O | < 30
O=C(Nc1ccccn1)Nc1cccc2c1C1CC3(CCN1C2=O)SCCS3 (stereo unspecified) | 242
CCOC(=O)CNC(=O)C(=O)NCC(OC)OC | 63 to 65
Cc1ccc(S(=O)(=O)Nc2ccc3nnc(C(=O)O)c(O)c3c2)cc1 | 272 to 273
CCCCCCN1c2ccccc2NC(=O)c2cscc21 | 112 to 113
Cn1nnnc1-c1cnc2cc(Br)ccc2c1O | > 300
CC(C)(O)c1c(F)ccc(-c2ccc3nc(-c4ccc(Cl)cc4)cn3c2)c1F | 191 to 192
CCn1cc2c(n1)c(Cl)nc1cc(OCc3ccccc3)ccc12 | 155 to 157
O=C1OC(=O)c2cc(N=C=S)ccc21 | 106 to 108
O=C(Cc1ccc(Oc2ccc(F)cc2)cc1)NC1(C(=O)O)Cc2ccc(-c3ccc(Cl)cc3)cc2C1 (stereo unspecified) | 232 to 234
CN(C)C(=O)C(C)(C)CCCCC(=O)CCCCC(C)(C)C(=O)O | 91.5 to 93.5
CC(=O)NCCn1cccc1 | 59 to 60
COc1cc(OCc2ccccn2)ccc1/C=C/c1cc(/C=C/c2ccc3c(c2)OCO3)n[nH]1 | 218 to 220

Compound | melting point [°C]
N#Cc1cc(N)ccc1N1CCCC1 | 113
CC(=O)NNc1ccc([N+](=O)[O-])cn1 | 226 to 227
O=C(c1ccccc1)c1cnn2c(-c3ccccc3)ccnc12 | 163 to 165
COc1ccc([C@@H]2CCc3cc(OC)ccc3[C@@H]2CCn2ccnc2)cc1 (relative stereo) | 121
Cc1oc(-c2ccc(C(F)(F)F)cc2)nc1-c1cccc(-c2ccc(O)cc2)c1 | 133 to 135
CCN(CC)OC(=Nc1c(C(C)C)cccc1C(C)C)Nc1c(C(C)C)cccc1C(C)C | 113 to 116
CS(=O)(=O)c1ccc(-c2oc(C3CCCCC3)nc2-c2ccc(F)cc2)cc1 | 127 to 128
COc1ccc(C2CN(C)Cc3c(N)cccc32)cc1OC (stereo unspecified) | 143 to 144
NS(=O)(=O)c1cccc(-c2cn(-c3nc(-c4ccc(Cl)cc4)cc(C(F)(F)F)n3)cn2)c1 | 225
CC(=O)c1cc2c(C(C)=O)c(OCC3CO3)ccc2o1 (stereo unspecified) | 114
O=C1NC(=O)C(=Cc2ccc(-c3ccc(O)c(C45CC6CC(CC(C6)C4)C5)c3)cc2)S1 | 307 to 308
O=[N+]([O-])c1cn2c(n1)OC[C@@H](OCc1ccc(Br)cn1)C2 | 171 to 173
CCOC(=O)CNCc1cc(N(C)C)ccc1[N+](=O)[O-] | 70 to 72
COc1ccc(/C=C\c2ccc(OC)c(OC)c2OC)cc1 | 55 to 57
Cn1nc(NC(=O)Cc2ccccc2)c(-c2ccncc2)c1-c1ccc(F)cc1 | 158 to 160
O=C(Cl)c1sc2cc(OCc3ccccc3)ccc2c1Cl | 132 to 134
CCc1c(N)c(C(N)=O)nn1CC1CC1 | 143 to 145
Nc1ccc(F)c(O)c1 | 156 to 157
CC/C=C/C(=O)NC(=O)OC(C)(C)C | 78 to 79
CC1(C)SC(=N)NC1=O | 252 to 254
C=CCC(CC=C)(CC=C)c1ccc(-c2nc3cc4c(cc3n2CCC)C(=N)NC4=N)cc1 | 230 to 232
COCc1ccc(-c2csc(-c3ccncc3)n2)c(=O)[nH]1 | 249 to 254

Compound | melting point [°C]
O=C1CN2CCCCC2=NN1c1ccc(Cl)cc1Cl | 115 to 117
O=C1CCC(c2ccc(N=C(CCc3ccccc3)c3ccc(O)cc3O)cc2)=NN1 | 208 to 210
ON=Cc1cc(-c2ccc(O)cc2)c2occc2c1 | 192 to 194
Cn1nc(Br)c([N+](=O)[O-])c1NC(C)(C)C | 75 to 77
OCc1cccc2cc(Br)ccc12 | 72 to 75
O=C1Nc2ccc(C3CCCCC3)cc2C12OCCO2 | 178 to 180
COCc1nnc(NC(=O)C2c3ccccc3Oc3ccccc32)o1 | 113 to 114
CC1(C(=O)Nc2ccc(OCC3CC3)c(C(F)(F)F)c2)CC1 | 84 to 85
COc1cc(-c2cc(-c3ccccc3)c(N3CCOCC3)s2)nc(OC)c1OC | 124
N=C(N)Nc1nnc(-c2ccc([N+](=O)[O-])cc2)s1 | 295 to 297
CCOC(=O)[C@H](CCc1ccccc1)N[C@@H](C)C(=O)N1CC2(C[C@H]1C(=O)O)SCCS2 | 124 to 126
CC(=O)OCc1c(Br)cccc1Br | 62 to 65
COCCN1CCN(CC2CCN(c3ccc(Cl)cc3)C2=O)CC1 (stereo unspecified) | 103 to 105
CC(C)=CCC/C(C)=C/CSc1nc2cc(Cl)ccc2[nH]1 | 102 to 104
O=C1CCC(c2ccc(OC(F)(F)F)cc2)N1 (stereo unspecified) | 105 to 106
CCCCCc1ccc(C(=O)NO)cc1 | 89.9 to 90.1
Cc1nn(-c2ccccn2)c2nc3ccccc3c(C)c12 | 157 to 159
COC(=O)COc1ccc(I)cc1 | 69 to 70
C#CC(OC)Oc1cc(Cc2cnc(N)nc2N)cc(OC)c1OC (stereo unspecified) | 153 to 155
O=S(=O)(NCCc1ccc(CCO)cc1)c1cccc(C(F)(F)F)c1 | 70 to 72
O=C(O)c1ccc(OCCNC(=O)C2Cc3ccccc3N2S(=O)(=O)c2ccc(-c3ccc(F)cc3Cl)cc2)nc1 (stereo unspecified) | 88 to 98
CCCCc1nc2c(N)nc3c(c2n1CC(C)C)NCCC3 | 143 to 147

Compound | melting point [°C]
CO[C@@H]1CC[C@@H](NC(C)=O)c2ccccc21 (relative stereo) | 97 to 100
COc1ccc(-c2nc(NC3=NCCN3)sc2-c2ccc(OC)cc2)cc1 | 211 to 214
CCCCCc1scc(C(=O)OC)c1NC1=CC(=O)N(CCC)C1 | > 285
CCN(CC)C(=O)c1ccc(Cl)c(Cl)c1Br | 196
CC(C)(C)c1ccc(C(=O)Nc2cn3cc(-c4cn[nH]c4)ccc3n2)cc1 | 278 to 280
CCCC1COc2cc(C3COc4cc(C#N)c(F)cc4C3)c(F)cc2C1 (stereo unspecified) | 122
CCOC(=O)c1cnn(-c2ccccc2)c1Br | 86 to 89
Cc1ccc2[nH]c(C(=O)OC(C)C)c(Sc3ccc(Cl)cc3)c2c1 | 172 to 174
CCCCCCCCCCCC(=O)N[C@H]1CCCNC(=O)C1 | 93 to 94
COc1ccc(C(=O)c2sccc2OC)cc1 | 98 to 99
CC(=O)c1ccc(-c2cn3ccccc3n2)cc1 | 209 to 210
COC(=O)CCCCCNC(=O)/C=C/C=C/c1ccccc1[N+](=O)[O-] | 115 to 117
CS(=O)c1c(N)nc(N)nc1Cl (stereo unspecified) | 126 to 128
CCCCCCn1ccc(N)nc1=O | 216 to 217
CC(=O)N1c2cc(Cl)ccc2OP1c1ccccc1 (stereo unspecified) | 56 to 58
COc1cc([N+](=O)[O-])ccc1-c1sc(C)nc1C | 123 to 125
Cc1ccc(C(=O)Nc2ccccc2O)cc1F | 181 to 183
Cc1cccc(C)c1NCCNCC(O)COc1ccc(F)cc1 (stereo unspecified) | 105 to 106
O=c1cc(-c2cccs2)oc2cccc(OCCO)c12 | 160 to 162
O=C(C1CCC(Nc2nccc(-n3nnc4c(-c5ccsc5)cccc43)n2)CC1)N1CCC(O)CC1 (stereo unspecified) | 233 to 234
Cc1cc(Cc2ccccc2)nc(Nc2ccc(C(=O)NN)c(F)c2)n1 | 191 to 193
CCNC(=O)N1C(=O)[C@H](O)[C@@H]1c1ccccc1 | 141 to 142

Compound | melting point [°C]
c1ccc(-c2nn3c(c2-c2ccnc4cc(OCCN5CCOCC5)ccc24)CCCCC3)nc1 | 157 to 159
Nc1cn(-c2cncc(F)c2)nc1Cl | 149 to 151
Cc1nn(C)c2nc3ccccc3c(Cl)c12 | 127 to 129
CC(C)(C)c1cc(-c2coc3c(C(C)(C)C)cc(C(C)(C)C)cc23)c(O)c(C(C)(C)C)c1 | 236 to 238
O=C(O)COc1ccc2c(-c3ccccc3)noc2c1Cl | 219 to 221
COc1ccc2c(n1)C1(CO2)C(=O)N(Cc2ncc(Cl)n2C)c2ccccc21 (stereo unspecified) | 169 to 171
Nc1cc(-n2cc(C(=O)O)c(=O)c3cc(F)c(F)cc32)c(F)cc1F | > 270
O=C(O)c1ccc2c(ccn2Cc2cccc([N+](=O)[O-])c2)c1 | 251 to 254
CCOCn1c(-c2ccc(Cl)cc2)c(C(N)=O)c(Br)c1C(F)(F)F | 163 to 172
OCc1ccc2ccc3c4ccccc4ccc3c2c1 | 187 to 189
CCOC(=O)C(C(=O)OCC)c1c(Cl)cnc2c([N+](=O)[O-])cccc12 | 102
N#Cc1[nH]ccc1-c1ccc(Cl)cc1 | 114 to 115
COc1ccccc1Oc1c(NS(=O)(=O)c2ccc(C(C)(C)C)cc2)nc(-c2ncccn2)nc1OCCOc1ncc(-c2ccccn2)cn1 | 149 to 157
C[C@@H]1S[C@@H](C(=O)Nc2ccc(Cn3oc(=O)[nH]c3=O)cc2)Cc2cc3c(cc2C1=O)OCO3 | 237 to 239
O=C(NCc1ccc(I)cc1Cl)C1CC1 | 158 to 160
CC(CC(=O)c1ccccc1)C(=O)N1CSCC1C(=O)O (stereo unspecified) | 182 to 183
O=C1CCC(N2C(=O)c3cccc(CNC(=O)Nc4cccc5ccccc45)c3C2=O)C(=O)N1 (stereo unspecified) | 250 to 252
Fc1ccc(CNc2nc(Nc3cccc(C(F)(F)F)c3)nc(C(F)(F)F)n2)cc1 | 106 to 107

Source: a melting point compilation (Tetko et al.; mined from patent text by program, amines drawn as free bases though some values may be those of a salt)
